Experimental data reported in ChEMBL document CHEMBL1201862, “PubChem BioAssay data set” (2004).
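Cells were grown in 96-well plates and exposed to each compound for 48 hours at five concentrations; endpoints were interpolated linearly between bracketing concentrations, or set to the highest concentration if not reached. The concentration for 50% growth inhibition is given as GI50.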 Calls of active or inactive are those of the source. Cut-off read from the data, not from the text of the source: active = GI50 up to about 1.1 µM and inactive = higher.

Key:
Test in all cases: inhibition of tumour cell growth, NCI panel, 48 h
786-0 = test system: 786-0
COLO 205 = test system: COLO 205
EKVX = test system: EKVX
HOP-62 = test system: HOP-62
HOP-92 = test system: HOP-92
IGROV-1 = test system: IGROV-1
KM12 = test system: KM12
MCF7 = test system: MCF7
NCI-H226 = test system: NCI-H226
NCI-H23 = test system: NCI-H23
OVCAR-3 = test system: OVCAR-3
OVCAR-4 = test system: OVCAR-4
OVCAR-5 = test system: OVCAR-5
SK-MEL-28 = test system: SK-MEL-28
SK-MEL-5 = test system: SK-MEL-5
T47D = test system: T47D
TK-10 = test system: TK-10
CCRF-CEM = test system: CCRF-CEM
HL-60 = test system: HL-60
LOX IMVI = test system: LOX IMVI

Measured: GI50

O=C1COC(c2ccccc2O)=NN1CCCN1CCCC1
inactive: 786-0 > 100 µM | COLO 205 > 100 µM | EKVX > 100 µM | HOP-62 > 100 µM | HOP-92 > 100 µM | IGROV-1 > 100 µM | KM12 > 100 µM | MCF7 > 100 µM | NCI-H226 > 100 µM | NCI-H23 > 100 µM | OVCAR-3 > 100 µM | OVCAR-4 > 100 µM | OVCAR-5 > 100 µM | SK-MEL-28 > 100 µM | SK-MEL-5 > 100 µM | T47D > 100 µM | TK-10 > 100 µM

COC(=O)C12C3C4(C(=O)OC)C1C1(C(=O)OC)C2C3(C(=O)OC)C41C(=O)N(C(C)C)C(C)C (stereo not drawn)
inactive: 786-0 > 100 µM | CCRF-CEM > 100 µM | COLO 205 > 100 µM | EKVX > 100 µM | HL-60 > 100 µM | HOP-62 > 100 µM | HOP-92 > 100 µM | IGROV-1 > 100 µM | KM12 > 100 µM | LOX IMVI > 100 µM | MCF7 > 100 µM | NCI-H23 > 100 µM | OVCAR-3 > 100 µM | OVCAR-4 > 100 µM | OVCAR-5 > 100 µM | SK-MEL-28 > 100 µM | SK-MEL-5 > 100 µM | T47D > 100 µM | TK-10 > 100 µM

Cc1ccc(S(=O)(=O)NC(=O)OC23COCN2COC3)cc1
inactive: 786-0 > 100 µM | COLO 205 > 100 µM | EKVX > 100 µM | HOP-62 > 100 µM | HOP-92 > 100 µM | IGROV-1 > 100 µM | KM12 > 100 µM | LOX IMVI > 100 µM | MCF7 91 µM | NCI-H226 > 100 µM | NCI-H23 > 100 µM | OVCAR-3 > 100 µM | OVCAR-4 > 100 µM | OVCAR-5 > 100 µM | SK-MEL-28 > 100 µM | SK-MEL-5 > 100 µM | T47D 69.5 µM | TK-10 > 100 µM

Fc1ccc(OCc2ccc3nc(-c4ccccc4)c(Cl)nc3c2)cc1
inactive: 786-0 16.9 µM | CCRF-CEM 25.7 µM | COLO 205 37.1 µM | EKVX 39.6 µM | HL-60 33.3 µM | HOP-62 16.3 µM | HOP-92 25.7 µM | IGROV-1 25.1 µM | KM12 51.6 µM | LOX IMVI 88.5 µM | MCF7 53.1 µM | NCI-H23 25.3 µM | OVCAR-3 47.6 µM | OVCAR-4 39.5 µM | OVCAR-5 41.7 µM | SK-MEL-28 69.3 µM | SK-MEL-5 17 µM | T47D 31.6 µM | TK-10 31.8 µM

c1cc2c3c(c1)[C@@H]1O[C@@H]1c1cccc(c1-3)[C@@H]1O[C@H]21
inactive: 786-0 20 µM | COLO 205 18.1 µM | EKVX 16.6 µM | HOP-62 27.7 µM | HOP-92 20.8 µM | KM12 17.1 µM | LOX IMVI 3.08 µM | MCF7 10.1 µM | NCI-H226 > 100 µM | NCI-H23 16.4 µM | OVCAR-4 19.8 µM | OVCAR-5 16.5 µM | SK-MEL-28 15.7 µM | SK-MEL-5 17.9 µM | T47D 20.5 µM | TK-10 32.2 µM

CCOc1c2ccsc2c(OCC)c2ccsc12
inactive: 786-0 4.44 µM | CCRF-CEM 3.77 µM | COLO 205 4.21 µM | EKVX > 29.6 µM | HL-60 2.07 µM | HOP-62 4.78 µM | HOP-92 2.57 µM | IGROV-1 5.06 µM | KM12 3.77 µM | LOX IMVI 2.61 µM | MCF7 3.59 µM | NCI-H23 4.34 µM | OVCAR-3 3.52 µM | OVCAR-4 > 100 µM | OVCAR-5 11.8 µM | SK-MEL-28 9.38 µM | SK-MEL-5 3.34 µM | T47D 3.94 µM | TK-10 > 100 µM

CC(=O)OCC1OC(Oc2cc(C)c(O)cc2C/C=C(\C)CC/C=C(\C)CC(=O)CC(C)C)C(O)C(OC(C)=O)C1OC(C)=O (stereo not drawn)
inactive: 786-0 21 µM | CCRF-CEM 9.82 µM | COLO 205 10.2 µM | EKVX 4.6 µM | HL-60 10.8 µM | HOP-62 11.4 µM | HOP-92 45.8 µM | IGROV-1 29.4 µM | KM12 12.5 µM | LOX IMVI 13 µM | MCF7 12.8 µM | NCI-H23 6.95 µM | OVCAR-3 8.81 µM | OVCAR-4 19.6 µM | OVCAR-5 1.83 µM | SK-MEL-28 27.4 µM | SK-MEL-5 8.13 µM | T47D 9.42 µM | TK-10 16.2 µM

CC(C)=CCOc1cc(NC(=S)c2ccoc2C)ccc1Cl [UC 781]
inactive: 786-0 > 100 µM | CCRF-CEM 39.6 µM | COLO 205 > 100 µM | EKVX > 100 µM | HOP-62 84.1 µM | HOP-92 8.77 µM | IGROV-1 65.2 µM | KM12 > 100 µM | LOX IMVI 14.1 µM | MCF7 > 100 µM | NCI-H226 57.4 µM | NCI-H23 > 100 µM | OVCAR-3 > 100 µM | OVCAR-4 > 100 µM | OVCAR-5 > 100 µM | SK-MEL-28 > 100 µM | SK-MEL-5 > 100 µM | T47D 5.07 µM | TK-10 > 100 µM

CN(C)c1nc(N(C)C)nc(N(C)C23CC4CC(CC(C4)C2)C3)n1
inactive: 786-0 40.5 µM | CCRF-CEM 22.4 µM | COLO 205 15.1 µM | EKVX 32 µM | HOP-62 24 µM | HOP-92 21.8 µM | IGROV-1 17.1 µM | KM12 44.5 µM | MCF7 37.6 µM | NCI-H226 32.6 µM | NCI-H23 13.4 µM | OVCAR-3 17.1 µM | OVCAR-4 44.8 µM | OVCAR-5 21.4 µM | SK-MEL-28 46.5 µM | T47D 31.4 µM

O=[N+]([O-])c1cc(-c2nnc(C34CC5CC(CC(C5)C3)C4)o2)cc([N+](=O)[O-])c1
inactive: 786-0 34.2 µM | CCRF-CEM > 100 µM | COLO 205 17.9 µM | EKVX > 100 µM | HL-60 > 100 µM | HOP-62 59.4 µM | HOP-92 36.1 µM | IGROV-1 > 100 µM | KM12 > 100 µM | LOX IMVI > 100 µM | NCI-H226 83.4 µM | NCI-H23 > 100 µM | OVCAR-3 63.5 µM | OVCAR-4 > 100 µM | OVCAR-5 > 100 µM | SK-MEL-28 86.1 µM | SK-MEL-5 14.1 µM | T47D > 100 µM

CC(C)(O)C1CC(=O)C(C)(C2C(O)CC3(C)C4CC=C5C(CCC(O)C5(C)C)C4(C)C(=O)CC23C)O1 (stereo not drawn)
inactive: 786-0 > 100 µM | COLO 205 > 100 µM | EKVX > 100 µM | HOP-62 > 100 µM | HOP-92 91.8 µM | IGROV-1 > 100 µM | KM12 > 100 µM | LOX IMVI > 100 µM | MCF7 > 100 µM | NCI-H226 > 100 µM | NCI-H23 > 100 µM | OVCAR-3 > 100 µM | OVCAR-4 > 100 µM | OVCAR-5 > 100 µM | SK-MEL-28 > 100 µM | SK-MEL-5 > 100 µM | T47D > 100 µM | TK-10 > 100 µM
